Experimental findings from patent US10285994B2, “Method of preventing or treating osteoporosis by neddylation inhibitor” (Chang Gung University, priority 2017, dated 2019) are described below.

In one test the test system is RAW264.7 cells. The experiment in a line: Pit assay on Corning Osteo Surface, RAW264.7-derived osteoclasts. Type of test: cell-based, mouse. The following applies: sRANKL-activated RAW264.7 cells, 7 days, FIG. 2B. As to the method: FIGS. 2A-2D are data collected from RAW264.7 cells respectively incubated in the medium containing sRANKL (50 ng/ml) and specified concentrations of MLN4924 for 7 days according to example 1.2 of the present disclosure. FIG. 2A: the photographs of TRAP staining depicting the differentiation of osteoclasts from RAW264.7 cells. FIG. 2B: after the differentiation of osteoclasts in Corning Osteo Surface, the cells were removed, and the resorbed areas for confirming osteoclast activity were analyzed by 1% toluidine blue staining. FIG. 2C: the culture medium is subject to Biovision Cathepsin K Activity Fluorometric Assay Kit for the analysis of cathepsin K activity. FIG. 2D: the effect of effective doses of MLN4924 on the viability of RAW264.7 cells is evaluated by MTT assay. Scale bar represents 100 μm. Data are expressed as mean±SD where *p<0.05.
The pre-osteoclasts and RAW264.7 cells were seeded into Corning Osteo Surface Assay 96-wells plate (Corning, Kennebunk, Me.). Twenty-four hours later, the cells were treated with sRANKL (50 ng/ml) and specified concentrations of MLN4924 for 7 days. The cells were then harvested so as to evaluate the cathepsin K activity by use of Biovision Cathepsin K Activity Fluorometric Assay Kit (Biovision, Milpitas, Calif.). The Corning Osteo surface was stained with 1% toluidine blue for 24 hours and washed with deionized water twice. […]

In another test the test system is P38 (pP38). Nature of the test: Western blot, sRANKL-induced P38 phosphorylation in RAW264.7 cells. The following applies: RAW264.7, 30 min pre-treatment, sRANKL 50 ng/ml, FIG. 3A-3B. It is filed as cell-based, mouse. As to the method:
(§1) FIGS. 3A-3D are data collected from Western blot analysis that respectively depict the expression of specified protein extracted from the RAW264.7 cells, which are pre-treated with specified concentrations of MLN4924 for 30 minutes followed by the stimulation of sRANKL (50 ng/ml) according to example 2 of the present disclosure. FIG. 3A: the time course effect of MLN4924 on the phosphorylations of ERK (pERK), P38 (pP38) and JNK (pJNK). FIG. 3B: the dose effect of MLN4924 on the phosphorylations of ERK (pERK), P38 (pP38) and JNK (pJNK). FIG. 3C: the time course effect of MLN4924 on the expression of NFATc-1. FIG. 3D: the dose effect of MLN4924 on the expression of NFATc-1. Mock: untreated control; R: sRANKL; M: MLN4924.
(§2) The RAW264.7 cells were starved with serum-free medium for six hours and then treated with the specified treatments. At indicated time points, the cells were washed with cold phosphate-buffered saline (PBS) and lysed in RIPA buffer containing complete protease inhibitor cocktail (Roche). The cell lysates were separated by SDS-PAGE followed by Western blotting with the indicated antibodies, including NEDD8, APPBP1, UBA3.
Specifically, the inhibitory effect increased with an increase in the MLN4924 concentration (FIG. 3B).

A further test relates to NFATc-1. The experiment in a line: Western blot, sRANKL-induced NFATc-1 expression in RAW264.7 cells. Type of test: cell-based, mouse. The following applies: RAW264.7, 30 min pre-treatment, sRANKL 50 ng/ml, FIG. 3C-3D. Here is the method: as §1, §2
In addition, ectopic expression of NFATc-1 in the pre-osteoclasts rendered the pre-osteoclast differentiated to osteoclasts in the absence of RANKL. […]

Test [1] concerns ovariectomized (OVX) mice. The experiment in a line: Serum CTX-1 ELISA in OVX + sRANKL mice. Type of test: in vivo, mouse. The following applies: 10 mg/kg i.p. once daily for 2 weeks, FIG. 6E. As to the method:
FIGS. 6A-6E are the data depicting the mouse model of ovariectomy-induced osteoporosis, in which the ovariectomized (OVX) mice are respectively treated with sRANKL (1 mg/Kg) in the absence or presence of MLN4924 (10 mg/Kg) according to example 5.1 of the present disclosure. FIG. 6A: Micro computed-tomography (micro-CT) three-dimensional images of the distal femurs of mice respectively treated with the indicated treatments, in which the left panels represent transaxial plane, and the right panels represent coronal plane. FIGS. 6B-6D: micro-CT measurement of trabecular bone parameters, including bone volume/total volume (FIG. 6B), trabecular number (FIG. 6C), and trabecular space (FIG. 6D). […] Values are expressed as mean±SD, N=6 per group. *p<0.05; **p<0.01.
All experimental procedures were approved by the Institutional Animal Care and Use Committee of the Chang Gung Memorial Hospital at Chiayi and complied with the Guideline for the Care and Use of Laboratory Animals available through the National Academy of Sciences (IACUC number: 2013100102 and 2015103001). […] Serum levels of cross linked C-telopeptide of type I collagen (CTX-1) (CEA665Mu) was measured by specific ELISA kit (USCN life science incorporation, Wuhan, Hubei, China).
Since CTX-1 serve as the biomarker for bone resorption, the level of CTX-1 in the serum of mice receiving specified treatments were then determined.

Turning to `NS(=O)(=O)OC[C@@H]1C[C@@H](n2ccc3c(N[C@H]4CCc5ccccc54)ncnc32)C[C@@H]1O` [MLN4924, (1S,2S,4R)-4-(4-((1S)-2,3-Dihydro-1H-inden-1-ylamino)-7H-pyrrolo(2,3-d)pyrimidin-7-yl)-2-hydroxycyclopentyl) methyl sulphamate], the “bone matrix resorption of osteoclasts” value in the test on RAW264.7 cells is “significantly inhibited”. The “sRANKL-upregulated phosphorylation of P38 (pP38)” value in the test on P38 (pP38) is recorded as “inhibited”. The “expression of NFATc-1 induced by sRANKL” value in the test with NFATc-1 is given as “significant suppressed”. Moreover, in test [1], the “serum CTX-1 level” value is “significantly rescued the OVX+sRANKL-stimulated serum CTX-1 level upregulation”.
